Each structure is given as a SMILES string.

What is called AC50 is the midpoint of the concentration-response curve, whichever way the signal moves. Low values mean activity at low concentration, high ones activity only at high concentration.

One experiment deals with PKR R510Q (Homo sapiens, UniProt P30613, R510Q). Nature of the experiment: PKR mutant assay, PKR R510Q AC50. The format is biochemical. As to conditions: mutant PKR R510Q enzyme.
The next experiment has as its target PKR R532W (Homo sapiens, UniProt P30613, R532W). Nature of the experiment: PKR mutant assay, PKR R532W AC50. Type of experiment: biochemical. To be noted: mutant PKR R532W enzyme.
In experiment [1] the target is T1, PKR WT (Homo sapiens, UniProt P30613). Nature of the experiment: PKR WT enzymatic assay AC50. The format is biochemical. As to conditions: wild type PKR.
Experiment [2] deals with T1, PKR WT. Nature of the experiment: PKR WT cell based assay AC50. To be noted: wild type PKR.

T1 sequence (P30613 whole entry): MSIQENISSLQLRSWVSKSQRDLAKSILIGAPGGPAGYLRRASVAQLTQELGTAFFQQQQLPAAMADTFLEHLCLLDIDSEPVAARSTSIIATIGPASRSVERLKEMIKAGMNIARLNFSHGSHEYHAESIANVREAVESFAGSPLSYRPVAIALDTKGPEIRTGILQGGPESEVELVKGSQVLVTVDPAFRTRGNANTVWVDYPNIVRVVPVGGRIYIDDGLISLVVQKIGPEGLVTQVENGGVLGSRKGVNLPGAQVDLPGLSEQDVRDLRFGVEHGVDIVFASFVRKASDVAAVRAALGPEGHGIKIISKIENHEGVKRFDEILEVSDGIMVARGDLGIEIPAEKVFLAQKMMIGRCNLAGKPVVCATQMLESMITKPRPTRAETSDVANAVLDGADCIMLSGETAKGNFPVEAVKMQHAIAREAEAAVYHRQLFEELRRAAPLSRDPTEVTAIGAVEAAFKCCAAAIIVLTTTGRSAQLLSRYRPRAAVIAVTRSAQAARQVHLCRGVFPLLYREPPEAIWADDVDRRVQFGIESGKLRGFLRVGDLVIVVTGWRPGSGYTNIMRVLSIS
Chain of PKR R510Q (P30613 whole entry R510Q): as the sequence (P30613 whole entry) above, with R510Q counted along it
Chain of PKR R532W (P30613 whole entry R532W): as the sequence (P30613 whole entry) above, with R532W counted along it

As for `COc1cccc(C2(O)CN(C(=O)c3ccc(NS(=O)(=O)c4cccc5cccnc45)cc3)C2)c1` [Compound 61], the concentration at half-maximal activity (AC50) was 101 to 1000 nM on PKR R510Q, less than 100 nM on PKR R532W, less than 100 nM on PKR WT [1] and less than 100 nM on PKR WT [2].

On to `O=C(c1ccc(NS(=O)(=O)c2cccc3cccnc23)cc1)N1CC(O)(c2ccccc2Cl)C1` [Compound 5, N-(4-(3-(2-chlorophenyl)-3-hydroxyazetidine-1-carbonyl)phenyl)quinoline-8-sulfonamide], for which the AC50 is 101 to 1000 nM on PKR R510Q, less than 100 nM on PKR R532W, less than 100 nM at PKR WT [1] and 101 to 1000 nM at PKR WT [2].

The values are drawn from patent publication US9458132B2, “Therapeutic compounds and compositions and their use as PKM2 modulators” (AGIOS PHARMACEUTICALS, INC., priority 2012, dated 2016).
